Values of other authors, collected in patent publication US6818776B2, “Alkali metal salt of thiazolidine-2,4-dione derivative” (Kyorin Pharmaceutical Co., Ltd., priority 2000, dated 2004).

How the values were obtained:
[1] = reported in M. Nomura et al, Bioorg. Med. Chem. Lett., 1999, 9, 533
[2] = system: human peroxisome proliferator-activated receptor (PPAR); conditions: reported in K. Murakami et al, Diabetes. 1998, 47, 1841

Q: With `COc1ccc(CC2SC(=O)NC2=O)cc1C(=O)NCc1ccc(C(F)(F)F)cc1` (centres unmarked) [KRP-297, 5-[(2,4-Dioxothiazolidin-5-yl)methyl]-2-methoxy-N-[[4-(trifluoromethyl)phenyl]methyl]benzamide] as the molecule, how does the antihyperglycemic activity [1] read?
A: The antihyperglycemic activity was “excellent antihyperglycemic activity”.

Q: And the “agonistic action against human PPAR” value [2]?
A: The value was “agonistic action”.
